Test results from patent EP4603105A1, “PHARMACEUTICAL COMPOSITION CONTAINING CYCLIC COMPOUND HAVING SELECTIVE KRAS INHIBITORY EFFECT AGAINST HRAS AND NRAS” (CHUGAI SEIYAKU KABUSHIKI KAISHA, priority 2022, dated 2024).
*1 amine or outer side, *2 acyl side, *3 side chain or, on linkers, in order; H or OH if unused. Where a SMILES comes first, the peptide text is derived from it. Bridges are numbered along the chain shown (N, C = ends). [ ]: non-standard residue; d: D form. The star is where a group is joined. hPhe(3,5-F2-4-CF3) = N[C@@H](CCc1cc(F)c(C(F)(F)F)c(F)c1)C(=O)O; hPhe(3-Cl-4-CF3) = N[C@@H](CCc1ccc(C(F)(F)F)c(Cl)c1)C(=O)O; NPrPhe(4-CF3) = CCCN[C@@H](Cc1ccc(C(F)(F)F)cc1)C(=O)O; NEtPhe(4-F) = CCN[C@@H](Cc1ccc(F)cc1)C(=O)O; NMeGly(cPent) = CN[C@H](C(=O)O)C1CCCC1; Ac4c(3,3-F2) = NC1(C(=O)O)CC(F)(F)C1; X3 = CCC[C@](C)(N[*:1])C(=O)[*:2]; Hyp = O=C(O)[C@@H]1C[C@@H](O)CN1; NMeD = CN[C@@H](CC(=O)O)C(=O)O; NMeL = CN[C@@H](CC(C)C)C(=O)O; αMeV = CC(C)[C@](C)(N)C(=O)O; Morpholide = C1CN(*)CCO1; NMeA = CN[C@@H](C)C(=O)O; Ac5c = NC1(C(=O)O)CCCC1; Aze = O=C(O)[C@@H]1CCN1; Sar = CNCC(=O)O

Assays:
[1] = molecular target: GDP-bound NRAS wild-type protein (Homo sapiens, UniProt P01111); assay: Binding to NRAS by surface plasmon resonance (SPR), KD and KD ratio to KRAS
Sequence of GDP-bound NRAS wild-type protein (P01111 whole entry): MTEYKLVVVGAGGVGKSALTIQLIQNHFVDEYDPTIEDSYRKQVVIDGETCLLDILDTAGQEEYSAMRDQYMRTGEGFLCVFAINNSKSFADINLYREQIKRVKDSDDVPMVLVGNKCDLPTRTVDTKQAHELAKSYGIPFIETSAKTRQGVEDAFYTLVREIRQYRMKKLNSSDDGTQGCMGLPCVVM
In short: (§1)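 Recombinant RAS proteins bearing a biotinylated Avi tag and loaded with GDP served as the captured ligand, recaptured fresh every cycle. Binding responses were referenced to an uncoated surface and a buffer-only blank cycle. Dissociation constants were obtained by 1:1 model fitting at 30°C.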

[2] = system: human lung cancer strain NCI-H441; type: cell-based
In short: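 Signal came from […] measured per well once the reagent was added. Beforehand, cells were cultured at 37°C and 5% carbon dioxide on a compound series serially diluted in dimethyl sulfoxide.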

HRAS wild-type protein = HRAS wild-type protein (Homo sapiens, UniProt P01112); assay: Binding to HRAS by surface plasmon resonance (SPR), KD and KD ratio to KRAS
Sequence of HRAS wild-type protein (P01112 whole entry): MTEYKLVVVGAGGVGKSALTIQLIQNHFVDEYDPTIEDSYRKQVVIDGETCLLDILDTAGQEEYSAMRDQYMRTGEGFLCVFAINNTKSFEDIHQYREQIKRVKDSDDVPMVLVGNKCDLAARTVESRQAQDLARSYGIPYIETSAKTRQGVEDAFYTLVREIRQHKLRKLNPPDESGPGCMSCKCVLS
In short: as §1

[3] = ratio of the KD value with respect to GDP-bound NRAS wild-type protein to the KD value with respect to KRAS
[4] = ratio of the KD value with respect to HRAS wild-type protein to the KD value with respect to KRAS
[5] = ratio of KD for GDP-bound NRAS wild-type protein to KD for KRAS
[6] = ratio of KD for HRAS wild-type protein to KD for KRAS
[7] = ratio of KD value for GDP-bound NRAS wild-type protein to KD value for KRAS (SPR)
[8] = ratio of KD value for HRAS wild-type protein to KD value for KRAS (SPR)

Compound	NRAS /KRAS [1, 3]	IC50 [2] [µM]	HRAS /KRAS (HRAS wild-type protein; [4])	NRAS /KRAS [1, 5]	HRAS /KRAS (HRAS wild-type protein; [6])	NRAS /KRAS [1, 7]	HRAS /KRAS (HRAS wild-type protein; [8])
CC[C@H](C)[C@@H]1NC(=O)[C@H](CC)N(C)C(=O)C[C@@H](C(=O)N(C)C)N(C)C(=O)[C@H](C2CCCC2)N(C)C(=O)C2(CCC2)NC(=O)[C@@H]2C[C@H](N3CCC(F)(F)CC3)CN2C(=O)[C@H](CCc2cc(F)c(C(F)(F)F)c(F)c2)NC(=O)CN(C)C(=O)[C@H](Cc2ccc(C(F)(F)F)cc2)N2CCCC[C@@H](C2=O)N(C)C(=O)CN(C)C1=O [PP0732]	C (A compound having a KD ratio of 0.1 or more and less than 3 is denoted as C)	0.0396	B (a compound having 3 or more and less than 10 is denoted as B)				
CCCN1C(=O)CN(C)C(=O)[C@@H]2CCN2C(=O)[C@H]([C@@H](C)CC)NC(=O)[C@H](CC(C)C)N(C)C(=O)C[C@@H](C(=O)N2CCOCC2)N(C)C(=O)[C@H](C2CCCC2)N(C)C(=O)C2(CCCC2)NC(=O)[C@@H]2C[C@@H](OCC)CN2C(=O)[C@H](CCc2ccc(C(F)(F)F)c(Cl)c2)NC(=O)CN(C)C(=O)[C@@H]1Cc1ccc(C(F)(F)F)cc1 [PP0310] ([NMeL]I[Aze][Sar][NPrPhe(4-CF3)][Sar][hPhe(3-Cl-4-CF3)][Hyp](Et)[Ac5c][NMeGly(cPent)][NMeD]-Morpholide; lactam N-11)		0.0138		B (a compound having 3 or more and less than 10 is denoted as B)	C (A compound having a KD ratio of 0.1 or more and less than 3 is denoted as C)		
CCC[C@H]1C(=O)N[C@@H](C2CCCC2)C(=O)N(C)CC(=O)N(C)[C@H]2C/C=C\CCN(C2=O)[C@@H](Cc2ccc(C(F)(F)F)cc2)C(=O)N(C)CC(=O)N[C@@H](CCc2ccc(C(F)(F)F)c(Cl)c2)C(=O)N2CC3(CC3)C[C@H]2C(=O)NC2(CC(C)(C)C2)C(=O)N(C)[C@@H](C2CCCC2)C(=O)N(C)[C@H](C(=O)N(C)C)CC(=O)N1C [PP2986]		0.0251		AA (a compound having 20 or more is denoted as AA)	A (a compound having 10 or more and less than 20 is denoted as A)		
CCCN1C(=O)[C@@H]2CCN2C(=O)CN(C)C(=O)[C@H]([C@@H](C)CC)NC(=O)[C@H](CC(C)C)N(C)C(=O)C[C@@H](C(=O)N2CCOCC2)N(C)C(=O)[C@H](C2CCCC2)N(C)C(=O)C2(CC(F)(F)C2)NC(=O)[C@@H]2CCCN2C(=O)[C@H](CCc2cc(F)c(C(F)(F)F)c(F)c2)NC(=O)CN(C)C(=O)[C@@H]1Cc1ccc(C(F)(F)F)cc1 [PP0802] ([NMeL]I[Sar][Aze][NPrPhe(4-CF3)][Sar][hPhe(3,5-F2-4-CF3)]P[Ac4c(3,3-F2)][NMeGly(cPent)][NMeD]-Morpholide; lactam N-11)		0.0065		C (A compound having a KD ratio of 0.1 or more and less than 3 is denoted as C)	B (a compound having 3 or more and less than 10 is denoted as B)		
CCCN(C)C(=O)[C@@H]1CC(=O)N(C)[C@@H](COC)C(=O)N[C@@H]([C@@H](C)CC)C(=O)N(C)CC(=O)N(C)[C@H]2C/C=C\CCN(C2=O)[C@@H](Cc2ccc(C(F)(F)F)cc2)C(=O)N(C)CC(=O)N[C@@H](CCc2cc(F)c(C(F)(F)F)c(F)c2)C(=O)N2CCC[C@H]2C(=O)NC2(CC(C)(C)C2)C(=O)N(C)[C@@H](C2CCCC2)C(=O)N1C [PP1729]		0.0206				AA (a compound having 20 or more is denoted as AA)	A (a compound having 10 or more and less than 20 is denoted as A)
CC[C@H](C)[C@@H]1NC(=O)[C@H](CC(F)(F)F)N(C)C(=O)C[C@@H](C(=O)N(C)C)N(C)C(=O)[C@H](C2CCCC2)N(C)C(=O)C2(CC(C)(C)C2)NC(=O)[C@@H]2CCCN2C(=O)[C@H](CCc2cc(F)c(C(F)(F)F)c(F)c2)NC(=O)CN(C)C(=O)[C@H](Cc2ccc(C(F)(F)F)cc2)N2CC/C=C\C[C@@H](C2=O)N(C)C(=O)CN(C)C1=O [PP1722]		0.0018				AA (a compound having 20 or more is denoted as AA)	A (a compound having 10 or more and less than 20 is denoted as A)
CCCN1C(=O)CN(C)C(=O)CNC(=O)[C@H]([C@@H](C)CC)NC(=O)[C@H](CC(C)C)N(C)C(=O)C[C@@H](C(=O)N(C)C)N(C)C(=O)[C@H](C2CCCC2)N(C)C(=O)C2(CCCC2)NC(=O)[C@@H]2CCCN2C(=O)[C@H](CCc2ccc(C(F)(F)F)c(Cl)c2)NC(=O)CN(C)C(=O)[C@@H]1Cc1ccc(C(F)(F)F)cc1 [PP0417] ([NMeL]IG[Sar][NPrPhe(4-CF3)][Sar][hPhe(3-Cl-4-CF3)]P[Ac5c][NMeGly(cPent)][NMeD]-NMe2; lactam N-11)	B (a compound having 3 or more and less than 10 is denoted as B)	0.0039	C (A compound having a KD ratio of 0.1 or more and less than 3 is denoted as C)				
CCO[C@@H]1C[C@H]2C(=O)NC3(CC(C)(C)C3)C(=O)N(C)[C@@H](C(CC)CC)C(=O)N(C)[C@H](C(=O)N(C)C)CC(=O)N(C)[C@@H](CC3CCC3)C(=O)N[C@@H]([C@@H](C)CC)C(=O)N(C)CC(=O)N(C)[C@H]3C/C=C\CCN(C3=O)[C@@H](Cc3ccc(C(F)(F)F)cc3)C(=O)N(C)CC(=O)N[C@@H](CCc3ccc(Cl)c(Cl)c3)C(=O)N2C1 [PP2180]	AA (a compound having 20 or more is denoted as AA)	0.0278	A (a compound having 10 or more and less than 20 is denoted as A)				
CCCN1C(=O)CN(C)C(=O)CN(C)C(=O)[C@H]([C@@H](C)CC)NC(=O)[C@H](CC(C)C)N(C)C(=O)C[C@@H](C(=O)N(C)C)N(C)C(=O)[C@H](C2CCCC2)N(C)C(=O)[C@](C)(CCC)NC(=O)[C@@H]2CCCN2C(=O)[C@H](CCc2cc(F)c(C(F)(F)F)c(F)c2)NC(=O)CN(C)C(=O)[C@@H]1Cc1ccc(C(F)(F)F)cc1 [PP0737] ([NMeL]I[Sar][Sar][NPrPhe(4-CF3)][Sar][hPhe(3,5-F2-4-CF3)]P[X3][NMeGly(cPent)][NMeD]-NMe2; lactam N-11)	B (a compound having 3 or more and less than 10 is denoted as B)	0.0382	C (A compound having a KD ratio of 0.1 or more and less than 3 is denoted as C)				
CCCN1C(=O)CN(C)C(=O)CN(C)C(=O)[C@H]([C@@H](C)CC)NC(=O)[C@H](CC(C)C)N(C)C(=O)C[C@@H](C(=O)N(C)C)N(C)C(=O)[C@H](C2CCCC2)N(C)C(=O)[C@](C)(C(C)C)NC(=O)[C@@H]2CCCN2C(=O)[C@H](CCc2cc(F)c(C(F)(F)F)c(F)c2)NC(=O)CN(C)C(=O)[C@@H]1Cc1ccc(C(F)(F)F)cc1 [PP0735] ([NMeL]I[Sar][Sar][NPrPhe(4-CF3)][Sar][hPhe(3,5-F2-4-CF3)]P[αMeV][NMeGly(cPent)][NMeD]-NMe2; lactam N-11)	B (a compound having 3 or more and less than 10 is denoted as B)	0.0409	C (A compound having a KD ratio of 0.1 or more and less than 3 is denoted as C)				
CCO[C@@H]1C[C@H]2C(=O)NC3(CCC3)C(=O)N(C)[C@@H](C3CCCC3)C(=O)N(C)[C@H](C(=O)N(C)C)CC(=O)N(C)[C@@H](CCOC)C(=O)N[C@@H]([C@@H](C)CC)C(=O)N(C)CC(=O)N(C)[C@H]3CCCCN(C3=O)[C@@H](Cc3ccc(C(F)(F)F)cc3)C(=O)N(C)CC(=O)N[C@@H](CCc3cc(F)c(C(F)(F)F)c(F)c3)C(=O)N2C1 [PP0705]	C (A compound having a KD ratio of 0.1 or more and less than 3 is denoted as C)	0.0175	C (A compound having a KD ratio of 0.1 or more and less than 3 is denoted as C)				
CCO[C@@H]1C[C@H]2C(=O)NC3(CCC3)C(=O)N(C)[C@@H](C3CCCC3)C(=O)N3CCC[C@@H]3CC(=O)N(C)[C@@H](CC3CC3)C(=O)N[C@@H]([C@@H](C)CC)C(=O)N(C)CC(=O)N(C)[C@H]3C/C=C\CCN(C3=O)[C@@H](Cc3ccc(C(F)(F)F)cc3)C(=O)N(C)CC(=O)N[C@@H](CCc3ccc(C(F)(F)F)c(OC)c3)C(=O)N2C1 [PP1616]		0.0335				B (a compound having 3 or more and less than 10 is denoted as B)	B (a compound having 3 or more and less than 10 is denoted as B)
CC[C@H](C)[C@@H]1NC(=O)[C@H](CC(C)C)N(C)C(=O)C[C@@H](C(=O)N2CCOCC2)N(C)C(=O)[C@H](C2CCCC2)N(C)C(=O)C2(CCCC2)NC(=O)[C@@H]2CCCN2C(=O)[C@H](CCc2ccc(C(F)(F)F)c(Cl)c2)NC(=O)CN(C)C(=O)[C@H](Cc2ccc(F)cc2)N(CC)C(=O)[C@@H]2CCN2C(=O)[C@H](C)N(C)C1=O [PP0218] ([NMeL]I[NMeA][Aze][NEtPhe(4-F)][Sar][hPhe(3-Cl-4-CF3)]P[Ac5c][NMeGly(cPent)][NMeD]-Morpholide; lactam N-11)		0.0039		C (A compound having a KD ratio of 0.1 or more and less than 3 is denoted as C)	C (A compound having a KD ratio of 0.1 or more and less than 3 is denoted as C)		
CCC[C@H]1C(=O)N[C@@H]([C@@H](C)CC)C(=O)N2CCC[C@H]2C(=O)N(C)[C@H]2C/C=C\CCN(C2=O)[C@@H](CC2CCC(F)(F)CC2)C(=O)N(C)CC(=O)N[C@@H](CCc2ccc(C(F)(F)F)c(OC)c2)C(=O)N2C[C@H](OCC)C[C@H]2C(=O)N(C)C2(CCC2)C(=O)N(C)[C@@H](C(CC)CC)C(=O)N(C)[C@H](C(=O)N(C)C)CC(=O)N1C [PP2353]	A (a compound having 10 or more and less than 20 is denoted as A)	0.0688	A (a compound having 10 or more and less than 20 is denoted as A)				
